Measured values: patent publication US20230127258A1, “COMPOSITION COMPRISING THROMBIN DERIVED PEPTIDES AND USE THEREOF” (In2Cure AB, priority 2019, published 2023)

Tests used:
[1] = tested on: S. aureus, P. aeruginosa and E. coli; assay: MIC and MBC of TCP-25 with EDTA, text summary for all three bacterial strains (FIG. 20B-C); format: cell-based
Method: The minimal inhibitory concentration (MIC) was conducted according to standard protocol (Wiegand et al., 2008). A 1% bacterial solution was diluted 1:1000 times in 2×BBL™ Mueller Hinton (MH) II, cation adjusted broth (Becton, Dickinson and Company, Sparks, USA). […] Next, 50 μl of the bacterial solution was added. MH broth without bacteria was used as a sterile control, whereas supplemented only with bacteria as growth control. […] MIC was assessed as the lowest concentration of treatment that prevents visual bacterial growth in the wells. The MIC plates were then used to determine the minimal bactericidal concentration (MBC) for the various treatments. This was conducted by resuspending the solution in each well with a pipette and then plating 10 μl droplets on a THA plates which were then incubated in 37° C. overnight. MBC was established at concentration at which no bacterial colonies were observed.

[2] = tested on: LPS / TLR4- and TLR2-induced NF-kB activation; settings: cited from earlier work
[3] = tested on: P. aeruginosa-induced sepsis and LPS-mediated shock; settings: mouse models of endotoxic shock; cited from earlier work

**Q.** Which “antibacterial effect of EDTA alone” value [1] does the source give for O=C(O)CN(CCN(CC(=O)O)CC(=O)O)CC(=O)O [EDTA, ethylenediaminetetraacetic acid] here?
**A.** The value was “some bacteriostatic effect”.

**Q.** For “HVFRLKKWIQKVIDQFGE (TCP-25 fragment; PEPTIDE (1)..(18) TCP-25 fragment) [HVF18]”, which anti-endotoxic functions [2] is on record?
**A.** Its anti-endotoxic functions is “anti-endotoxic functions in vitro and in vivo”.

**Q.** What about the mortality [3] of the same compound?
**A.** Its mortality is “reduce mortality”.
